Experimental findings from ChEMBL document CHEMBL3596144, “New Indole Tubulin Assembly Inhibitors Cause Stable Arrest of Mitotic Progression, Enhanced Stimulation of Natural Killer Cell Cytotoxic Activity, and Repression of Hedgehog-Dependent Cancer” (J Med Chem, 2015) are described below.

The source made the active and inactive calls. No cut-off for these calls is given here. Where only a bound is given, the exact number is not on record here.

The subject of series [1] is HeLa. Description: Upregulation of DNAM1 ligand expression in human HeLa cells after 48 hrs by immunofluorescence staining-based flow cytometric analysis. The class given is functional, cell-based. (In flow cytometry, cells or beads pass a laser one at a time.)
Series [2] concerns HeLa. The series can be described thus: Upregulation of NKG2D ligand expression in human HeLa cells after 48 hrs by immunofluorescence staining-based flow cytometric analysis. The class given is functional, cell-based.
In series [3] the target is Protein smoothened (Mus musculus) (UniProt P56726). The series can be described thus: Antagonist activity at smo receptor in mouse NIH3T3 Shh-Light II cells assessed as inhibition of SAG-induced hedgehog pathway after 48 hrs by dual luciferase reporter gene assay. The series is classed as cell-based. (In general: A reporter such as luciferase makes a cellular process visible.)
Protein smoothened (Mus musculus), sequence (P56726 whole entry): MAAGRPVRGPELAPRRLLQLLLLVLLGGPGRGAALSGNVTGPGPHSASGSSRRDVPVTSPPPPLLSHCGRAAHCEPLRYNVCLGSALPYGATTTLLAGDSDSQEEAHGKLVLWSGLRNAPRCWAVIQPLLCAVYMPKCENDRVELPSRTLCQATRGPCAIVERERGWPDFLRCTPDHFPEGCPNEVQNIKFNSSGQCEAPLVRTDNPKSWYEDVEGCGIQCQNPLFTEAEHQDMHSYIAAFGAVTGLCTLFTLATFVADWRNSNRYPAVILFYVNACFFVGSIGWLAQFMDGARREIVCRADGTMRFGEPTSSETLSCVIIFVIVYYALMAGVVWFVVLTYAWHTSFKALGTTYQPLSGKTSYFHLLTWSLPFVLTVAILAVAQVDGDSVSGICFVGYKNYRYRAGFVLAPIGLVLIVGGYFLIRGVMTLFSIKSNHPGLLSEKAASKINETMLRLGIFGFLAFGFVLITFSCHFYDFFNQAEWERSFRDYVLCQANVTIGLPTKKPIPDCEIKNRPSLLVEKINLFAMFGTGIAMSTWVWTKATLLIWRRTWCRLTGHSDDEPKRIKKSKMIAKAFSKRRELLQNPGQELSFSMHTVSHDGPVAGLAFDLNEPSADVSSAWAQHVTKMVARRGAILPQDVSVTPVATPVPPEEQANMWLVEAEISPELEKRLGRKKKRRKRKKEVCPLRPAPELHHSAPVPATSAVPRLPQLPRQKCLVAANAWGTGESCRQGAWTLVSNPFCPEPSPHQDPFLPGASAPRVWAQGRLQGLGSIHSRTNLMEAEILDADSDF

Series [4] can be described thus: Intrinsic clearance in mouse liver microsomes assessed per mg of protein preincubated for 10 mins followed by NADP/Glc6P/G6P-DH addition by LC-MS/MS analysis. The class given is ADME. As to conditions: read-out: CLH. (Microsomes from liver hold many membrane-bound enzymes, among them those of drug oxidation.)
Series [5] is described as follows: Intrinsic clearance in human liver microsomes assessed per mg of protein preincubated for 10 mins followed by NADP/Glc6P/G6P-DH addition by LC-MS/MS analysis. The class given is ADME. The settings on record: read-out: CLH.
Series [6] deals with PC-3. The series can be described thus: Cell cycle arrest in human PC3 cells assessed as accumulation at G2/M phase at 500 to 2000 nM after 24 hrs by propidium iodide staining-based flow cytometric analysis. The series is classed as functional.
Series [7] concerns RD. The series can be described thus: Cell cycle arrest in human RD cells assessed as accumulation at G2/M phase at 500 to 2000 nM after 24 hrs by propidium iodide staining-based flow cytometric analysis. The series is classed as functional.
For another series, the system named is NCI-H1975. Description: Cytotoxicity against human NCI-H1975 cells assessed as growth inhibition after 72 hrs by CellTiter-Fluor assay. The series is classed as functional, cell-based. The settings on record: NCI-H1975, 72 h.
The subject of series [8] is PC-3. The series can be described thus: Induction of apoptosis in human PC3 cells after 48 hrs by propidium iodide/annexin V-FITC staining-based cytofluorometric analysis. The series is classed as functional, cell-based.
The subject of the next series is OVCAR-8. The series can be described thus: cells. As to conditions: Homo sapiens, OVCAR-8, 48 h.
For series [9], the system named is HepG2. Description: Cell cycle arrest in human HepG2 cells assessed as accumulation at G2/M phase at 500 to 2000 nM after 24 hrs by propidium iodide staining-based flow cytometric analysis. The class given is functional.
Series [10] concerns RD. Description: Induction of apoptosis in human RD cells at 500 nM after 48 hrs by propidium iodide/annexin V-FITC staining-based cytofluorometric analysis. The class given is functional, cell-based.
Series [11] concerns RD. Description: Cytotoxicity against human RD cells assessed as growth inhibition after 48 hrs by MTT assay. The class given is functional, cell-based.
Series [12] deals with HepG2. The series can be described thus: Induction of apoptosis in human HepG2 cells after 48 hrs by propidium iodide/annexin V-FITC staining-based cytofluorometric analysis. The series is classed as functional, cell-based.
Series [13] is described as follows: Cytotoxicity against human MESSA/DX5 cells assessed as growth inhibition after 72 hrs by CellTiter-Glo assay. The class given is functional, cell-based. The settings on record: MES-SA/Dx5, 72 h.
For series [14], the system named is HeLa. Description: Induction of apoptosis in human HeLa cells at 20 nM after 24 hrs by propidium iodide/annexin V-FITC staining-based cytofluorometric analysis. The class given is functional, cell-based.
Series [15] relates to PC-3. Description: cells. As to conditions: Homo sapiens, PC-3, 48 h.
Description: Cytotoxicity against human PC3 cells assessed as growth inhibition after 48 hrs by MTT assay
Series [16] can be described thus: Cytotoxicity against human MESSA cells assessed as growth inhibition after 72 hrs by CellTiter-Glo assay. The class given is functional, cell-based. The settings on record: MES-SA.
The test system of series [17] is HeLa. Description: Cell cycle arrest in human HeLa cells assessed as accumulation at G2/M phase at 20 nM after 24 hrs by propidium iodide staining-based flow cytometric analysis. The series is classed as functional.
The test system of series [18] is HeLa. Description: Inhibition of microtubule polymerization in human HeLa cells assessed as appearance of tubulin foci and/or small asters of short microtubule fragments at 20 nM after 24 hrs by immunofluorescence staining-based microscopic analysis. The series is classed as cell-based.
The nature of a further series: cells. The settings on record: Homo sapiens, NCI/ADR-RES, 48 h.
Series [19] relates to HeLa. The series can be described thus: Cell cycle arrest in human HeLa cells assessed as accumulation at sub-G1 phase at 20 nM after 24 hrs by propidium iodide staining-based flow cytometric analysis. The series is classed as functional.

Description for OVCAR-8: Cytotoxicity against human OVCAR8 cells assessed as growth inhibition after 48 hrs by SRB assay

In the case of `COc1cc(C(=O)c2ccn(-c3cccc(N)c3)c2)cc(OC)c1OC`, the result in the series on HeLa [1] and with HeLa [2] was inactive.
Turning to `COc1cc(Sc2c(-c3ccccc3)[nH]c3c(Cl)c(Cl)ccc23)cc(OC)c1OC`, the inhibition result in [3] is “Dose-dependent effect”.
As for `COc1cc(Sc2c(-n3ccnc3)[nH]c3ccccc23)cc(OC)c1OC`, the inhibition result in [3] was “Dose-dependent effect”.
`COc1ccc2c(Sc3cc(OC)c(OC)c(OC)c3)c(-c3ccccc3)[nH]c2c1`: the inhibition entry in [3] is “Dose-dependent effect”.
For `CCOc1ccc2ccc(=O)oc2c1` [ETHOXYCOUMARIN], the microsomal CLint amounted to 711 µL/min/mg in [4] and 209 µL/min/mg in [5].
The IC50 is the concentration needed to halve the response being measured. Regarding `CC(=O)O[C@H]1C(=O)[C@@]2(C)[C@H]([C@H](OC(=O)c3ccccc3)[C@]3(O)C[C@H](OC(=O)[C@H](O)[C@@H](NC(=O)c4ccccc4)c4ccccc4)C(C)=C1C3(C)C)[C@]1(OC(C)=O)CO[C@@H]1C[C@@H]2O` [PACLITAXEL], the outcome with PC-3 [6], in the series on RD [7], in the series on HepG2 [9] and in the series with RD [10] was Active. Further, the IC50 is 0.0025 µM with NCI-H1975, 0.0037 µM with OVCAR-8 and more than 10 µM in the series with RD [11]. Further, the Activity result in the series with PC-3 [8] and in the series on HepG2 [12] was “Dose-dependent effect” throughout.
With `CC[C@]1(O)C[C@@H]2CN(CCc3c([nH]c4ccccc34)[C@@](C(=O)OC)(c3cc4c(cc3OC)N(C)[C@H]3[C@@](O)(C(=O)OC)[C@H](OC(C)=O)[C@]5(CC)C=CCN6CC[C@]43[C@@H]65)C2)C1` [VINBLASTINE], the IC50 in series [13] was 0.144 µM; in the series on PC-3 [15] it was 0.766 µM; in series [16] it was 0.003 µM; in “cells”, 0.2 µM. For the same molecule, the outcome in the series with HeLa [14] and with HeLa [19] was Active. Besides, in the series with HeLa [17], the Activity is recorded as more than 80%. For the same molecule, the inhibition entry in the series on HeLa [18] was “Active”.
In the case of `CCC1=C[C@@H]2CN(C1)Cc1c([nH]c3ccccc13)[C@@](C(=O)OC)(c1cc3c(cc1OC)N(C)[C@H]1[C@@](O)(C(=O)OC)[C@H](OC(C)=O)[C@]4(CC)C=CCN5CC[C@]31[C@@H]54)C2` [VINORELBINE], 5 µM corresponded to half-maximal inhibition in the series “cells” (IC50).
